Earlier results on four molecules are cited in patent US20060253014A1 (priority 2003, published 2006).

This data set relates to inbred mouse strains.

Like-named read-outs stand apart in the source and are kept apart here.

Take `Clc1ccc(C2CC3CCC2N3)cn1` (stereo not drawn) [Epibetadine, epibatidine]: for the setting “mouse, in vivo”, the “Resistant Stains (high AD50)” value is listed as “AKR, CBA, C57BL/10” and the “Sensitive Strains (low AD50)” value was “A, BALB/c”.

With `CN1CC[C@]23c4c5ccc(O)c4O[C@H]2[C@@H](O)C=C[C@H]3[C@H]1C5` [morphine], the “Sensitive Strains (low AD50)” value (mouse, in vivo) is 129P3, C3H/He, DBA/2.

On to `Cc1c(C(=O)c2cccc3ccccc23)c2cccc3c2n1[C@H](CN1CCOCC1)CO3` [WIN 55, 212-2], for which, for the setting “mouse, in vivo”, the “Resistant Stains (high AD50)” value is given as “AKR, C57BL/10, C58” and the “Sensitive Strains (low AD50)” value is given as 129P3, A, DBA/2.

As for `Clc1cccc(Cl)c1N=C1NCCN1` [Clonidine, clonidine], the “Sensitive Strains (low AD50)” value (murine strains, AD50 = the half-maximal antinociceptive dose) is 129P3, A, AKR,.
